{"source": "paper PMC7150870", "about": "(Toxins, 2020)", "key": {"[1]": {"conditions": "5.2–15.5 mM; cited from earlier work"}, "[2]": {"tested_on": "HEK 293T cells"}, "[3]": {"tested_on": "HEK293T cells", "type": "cell-based, human"}, "[4]": {"tested_on": "human fibroblasts", "conditions": "50 µM for 24 h; cited from earlier work"}, "[5]": {"tested_on": "hepatocyte cells", "conditions": "cited from earlier work"}, "[6]": {"tested_on": "Caco-2 cells"}, "[7]": {"tested_on": "HEK 293T cells", "type": "cell-based, human"}, "[8]": {"tested_on": "TNF-α", "conditions": "cited from earlier work"}, "[9]": {"target": "T1, P-gp (Homo sapiens, UniProt P08183)", "T1 sequence (P08183 whole entry, looked up)": "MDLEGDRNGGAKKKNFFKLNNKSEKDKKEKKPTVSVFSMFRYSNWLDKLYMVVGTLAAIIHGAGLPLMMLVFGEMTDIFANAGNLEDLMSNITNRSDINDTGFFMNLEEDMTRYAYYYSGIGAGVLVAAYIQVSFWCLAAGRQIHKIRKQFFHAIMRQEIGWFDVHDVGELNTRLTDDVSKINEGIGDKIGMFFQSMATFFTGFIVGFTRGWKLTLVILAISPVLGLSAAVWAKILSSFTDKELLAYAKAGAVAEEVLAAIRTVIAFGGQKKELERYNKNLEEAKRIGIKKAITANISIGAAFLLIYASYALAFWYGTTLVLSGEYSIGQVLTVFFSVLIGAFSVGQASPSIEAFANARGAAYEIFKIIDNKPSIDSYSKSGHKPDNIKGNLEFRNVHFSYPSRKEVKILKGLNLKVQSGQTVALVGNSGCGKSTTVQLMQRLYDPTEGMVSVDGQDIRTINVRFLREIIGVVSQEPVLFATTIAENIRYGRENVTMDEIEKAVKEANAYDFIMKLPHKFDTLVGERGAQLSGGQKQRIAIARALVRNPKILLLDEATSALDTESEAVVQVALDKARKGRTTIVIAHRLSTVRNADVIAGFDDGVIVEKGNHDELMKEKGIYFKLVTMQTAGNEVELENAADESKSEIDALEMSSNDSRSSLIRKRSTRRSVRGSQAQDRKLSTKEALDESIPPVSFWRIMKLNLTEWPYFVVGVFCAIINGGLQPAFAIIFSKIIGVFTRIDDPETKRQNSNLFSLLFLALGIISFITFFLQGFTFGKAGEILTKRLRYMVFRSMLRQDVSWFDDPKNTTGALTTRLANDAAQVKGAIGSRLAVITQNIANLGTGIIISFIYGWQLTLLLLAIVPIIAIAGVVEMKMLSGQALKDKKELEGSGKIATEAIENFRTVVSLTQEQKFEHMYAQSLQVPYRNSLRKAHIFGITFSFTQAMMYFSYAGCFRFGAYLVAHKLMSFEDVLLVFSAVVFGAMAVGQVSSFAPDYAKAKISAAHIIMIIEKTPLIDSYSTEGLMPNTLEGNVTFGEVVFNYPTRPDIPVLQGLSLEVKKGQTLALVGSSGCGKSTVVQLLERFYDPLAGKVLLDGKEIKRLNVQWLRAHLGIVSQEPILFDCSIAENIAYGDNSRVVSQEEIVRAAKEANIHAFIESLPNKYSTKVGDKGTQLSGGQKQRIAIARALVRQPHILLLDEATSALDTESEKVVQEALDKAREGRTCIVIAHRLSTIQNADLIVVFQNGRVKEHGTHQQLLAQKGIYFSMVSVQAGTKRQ", "conditions": "cited from earlier work"}, "[10]": {"tested_on": "RAW 264.7", "type": "cell-based, mouse"}, "[11]": {"tested_on": "epithelial cell layers", "conditions": "cited from earlier work"}, "[12]": {"target": "T1, P-gp"}, "[13]": {"tested_on": "Caco-2", "type": "cell-based, human"}, "[14]": {"tested_on": "HepG2", "type": "cell-based, human"}, "[15]": {"tested_on": "various mammalian cells", "conditions": "cited from earlier work"}, "[16]": {"tested_on": "HepG2, Caco-2, RAW 264.7, and HEK 293T cells", "conditions": "read-out: IC50 range in studied cells"}, "[17]": {"tested_on": "HEK293T", "type": "cell-based, human"}, "[18]": {"conditions": "human (Caco-2), mouse (RAW 264.7)"}}, "note": "Like-named read-outs stand apart in the source and are kept apart here. Marks after values point to notes of the source that are not given here.", "data": [{"smiles": "COc1cc(C2Oc3cc([C@H]4Oc5cc(O)cc(O)c5C(=O)[C@@H]4O)ccc3OC2CO)ccc1O", "note": "(stereo partly shown) [Silibinin, silibinin, reference compound]", "values": [{"measurement": "amount of DNA in the comet tail compared to positive control", "setting": "[1]", "result": "reduced the amount of DNA in the comet tail"}, {"measurement": "percentage of DNA in comet tail with respect to the negative control", "setting": "[2]", "result": "did not induce genotoxic effects"}, {"measurement": "reduction of cell viability by sole silibinin treatment", "setting": "[3]", "result": 45, "unit": "%"}, {"measurement": "cytotoxic effect", "setting": "[4]", "result": "no significant cytotoxic effect"}, {"measurement": "effect against OTA cytotoxicity", "setting": "[5]", "result": "protective effect"}, {"measurement": "metabolites found by non-target U-HPLC-MS analysis", "setting": "[6]", "result": "sulfate derivative"}, {"measurement": "transepithelial transport, Apical Medium", "setting": "[6]; [18]", "result": "44.34 ± 1.96^cd %"}, {"measurement": "transepithelial transport, Basolateral Medium", "setting": "[6]; [18]", "result": "23.24 ± 1.79^de %"}, {"measurement": "transepithelial transport, Caco-2 Cells", "setting": "[6]; [18]", "result": "0.00 ± 0.00^a %"}, {"measurement": "transepithelial transport, Raw 264.7 Cells", "setting": "[6]; [18]", "result": "0.00 ± 0.00^a %"}, {"measurement": "transepithelial transport, Total", "setting": "[6]; [18]", "result": "67.58 ± 2.95^cd %"}, {"measurement": "decrease of cell viability compared to cells cultured with a single mycotoxin", "setting": "[7]", "result": "about 30%"}, {"measurement": "OTA-induced TNF-α level reduced to", "setting": "[8]", "result": 70, "unit": "%"}, {"measurement": "doses completely blocking OTA-induced TNF-α", "setting": "[8]", "result": "1 to 26", "unit": "µM"}]}, {"smiles": "CC(=O)OC[C@]12C[C@H](OC(=O)CC(C)C)C(C)=C[C@H]1O[C@@H]1[C@H](O)[C@@H](OC(C)=O)[C@@]2(C)[C@]12CO2", "note": "[T-2, T-2 toxin]", "values": [{"measurement": "IC50", "setting": "[3]; read-out: IC50 halving the HEK293T cells viability", "result": 7, "unit": "nM"}, {"measurement": "P-gp substrate", "setting": "[9]", "result": "not a substrate of P-gp"}, {"measurement": "IC50", "setting": "[10]", "result": "3.57 ± 0.27", "unit": "nM"}, {"measurement": "transport through the epithelial cell layers", "setting": "[11]", "result": "≤ 24", "unit": "%"}, {"measurement": "P-gp activation (ATP consumption)", "setting": "[12]", "result": "activated P-gp in dose-dependent manner"}, {"measurement": "metabolites found by non-target U-HPLC-MS analysis", "setting": "[6]", "result": "3´-hydroxy, 3-hydroxy-15-deacetyl"}, {"measurement": "transepithelial transport, Apical Medium", "setting": "[6]", "result": "11.63 ± 0.62^a %"}, {"measurement": "transepithelial transport, Basolateral Medium", "setting": "[6]", "result": "28.13 ± 0.48^e %"}, {"measurement": "transepithelial transport, Caco-2 Cells", "setting": "[6]", "result": "0.01 ± 0.00^a %"}, {"measurement": "transepithelial transport, Raw 264.7 Cells", "setting": "[6]", "result": "0.01 ± 0.00^a %"}, {"measurement": "transepithelial transport, Total", "setting": "[6]", "result": "39.77 ± 0.98^b %"}, {"measurement": "IC50", "setting": "[13]", "result": "13.4 ± 1.07", "unit": "nM"}, {"measurement": "combination index, silibinin 3.4 µM", "setting": "[7]", "result": "0.99 ± 0.02", "unit": "Add"}, {"measurement": "combination index, silibinin 6.8 µM", "setting": "[7]", "result": "1.46 ± 0.14", "unit": "Ant"}, {"measurement": "combination index, silibinin 13.6 µM", "setting": "[7]", "result": "1.82 ± 0.06", "unit": "Ant"}, {"measurement": "combination index, silibinin 27.3 µM", "setting": "[7]", "result": "1.41 ± 0.11", "unit": "Ant"}, {"measurement": "combination index, silibinin 54.5 µM", "setting": "[7]", "result": "0.91 ± 0.04", "unit": "Add"}, {"measurement": "combination index, silibinin 109.00 µM", "setting": "[7]", "result": "1.00 ± 0.08", "unit": "Add"}, {"measurement": "silibinin pretreatment concentration with the strongest antagonism", "setting": "[7]", "result": 13.6, "unit": "µM"}, {"measurement": "type of interaction, silibinin 3.4 µM", "setting": "[7]", "result": "0.99 ± 0.02 Add (key: Syn: Combination index (CI) < 0.9; Add: 0.9 ≤ CI ≤ 1; Ant: CI > 1)"}, {"measurement": "type of interaction, silibinin 6.8 µM", "setting": "[7]", "result": "1.46 ± 0.14 Ant (key: Syn: Combination index (CI) < 0.9; Add: 0.9 ≤ CI ≤ 1; Ant: CI > 1)"}, {"measurement": "type of interaction, silibinin 13.6 µM", "setting": "[7]", "result": "1.82 ± 0.06 Ant (key: Syn: Combination index (CI) < 0.9; Add: 0.9 ≤ CI ≤ 1; Ant: CI > 1)"}, {"measurement": "type of interaction, silibinin 27.3 µM", "setting": "[7]", "result": "1.41 ± 0.11 Ant (key: Syn: Combination index (CI) < 0.9; Add: 0.9 ≤ CI ≤ 1; Ant: CI > 1)"}, {"measurement": "type of interaction, silibinin 54.5 µM", "setting": "[7]", "result": "0.91 ± 0.04 Add (key: Syn: Combination index (CI) < 0.9; Add: 0.9 ≤ CI ≤ 1; Ant: CI > 1)"}, {"measurement": "type of interaction, silibinin 109.00 µM", "setting": "[7]", "result": "1.00 ± 0.08 Add (key: Syn: Combination index (CI) < 0.9; Add: 0.9 ≤ CI ≤ 1; Ant: CI > 1)"}, {"measurement": "IC50", "setting": "[14]", "result": "11.4 ± 0.37", "unit": "nM"}, {"measurement": "IC50", "setting": "[15]", "result": "3 to 500", "unit": "nM"}, {"measurement": "IC50", "setting": "[16]", "result": "3.57 to 13.4", "unit": "nM"}, {"measurement": "IC50", "setting": "[17]", "result": "3.87 ± 0.27", "unit": "nM"}]}]}
